# Experimental data as given in PMC11329928, “Design, synthesis and structure-activity relationship (SAR) studies of an unusual class of non-cationic fatty amine-tripeptide conjugates as novel synthetic antimicrobial agents” (Frontiers in Pharmacology, 2024).
# Structures can show the parent of a compound that is named as a salt.
# Experiments:
# S. pneumoniae D39 = experiment: Viability after challenge at mid-exponential (T2) or early stationary (T3) phase; assay type: cell-based, Streptococcus pneumoniae; settings: S. pneumoniae D39, 50 µM, C+Y, 37°C
# Protocol: The effect of DICAMs at different phases of culture growth was also investigated. DICAMs (50 μM) were added to cultures in the early exponential phase (OD550 ≈ 0.15; T1), late exponential phase (OD550 ≈ 0.3–0.4; T2), or near the stationary phase of growth (OD550 ≈ 0.5–0.7; T3) and the evolution of OD values was followed at 37°C for at least 2 h. By default, the variation in cell viability was also determined. Negative and positive controls were run in parallel.
# [1] = system: S. pneumoniae R6 biofilms; experiment: Killing of preformed biofilms; assay type: cell-based, Streptococcus pneumoniae; settings: S. pneumoniae R6 biofilm, 1 h, 37°C, plating on blood agar
# Protocol: Biofilms were prepared as described ([Domenech and García, 2020]). Briefly, S. pneumoniae R6 cells in late exponential growth (OD550 ≈ 0.6; C + Y medium) were pelleted by centrifugation, resuspended in an equal volume of fresh medium, diluted 1/100 (4.5 × 10^6 CFU/mL), and then dispensed (200 µL per well) in 96-well flat-bottom polystyrene plates (Costar 3,595; Corning; Spain). After plate incubation at 34°C for 4.5 h without shaking, bacterial growth (non-adherent cells plus biofilm-forming cells) was determined by measuring the OD550 using a VersaMax microplate absorbance reader. The supernatant (non-adherent cells) was replaced by 200 μL of DICAM 4 (150, 300 or 600 µM) prepared by dilution in sterile water and plate incubation was continued for 1 h at 37°C. Plates were then washed and the biofilms disaggregated in sterile water for viable cell determination in Mueller-Hinton blood agar plates after overnight incubation at 37°C. For the observation of biofilms by CLSM, bacteria were grown on glass-bottomed dishes (WillCo-dish; WillCo Wells, Netherlands) and treated as above, plating 2 mL of the final inoculum per disc and then adding 0.5 mL of DICAM solution. […] Laser intensity and gain were kept the same for all images and they were analyzed using LCS software from Leica. […]
structure (smiles),measurement,setting,value
"CCCCCCCCCCCCCCCCCCNC(=O)[C@H](CCC(=O)O)NC(=O)[C@H]1CCCN1C(=O)[C@H](C)N [DICAM 4, Ala- Pro -Glu-NH-C18H37 ·HCl]","Death, addition at T3, approximately 3 h",S. pneumoniae D39,≥ 98%
same,"Decrease of viability, addition at T3, approximately 3 h",S. pneumoniae D39,≈ 1.7 log units
same,"Decrease of viability, addition at T2, 30 min",S. pneumoniae D39; 30 min incubation,≈ 3 log units
same,"Decrease of viability, addition at T2, 3 h",S. pneumoniae D39; 3 h incubation,~5 log units
same,Cells killed in preformed biofilms at 300 μM,[1],~90%
